{"source": "patent US20070155803A1", "about": "“Protease inhibitors” (ProZymex A/S, priority 2003, published 2007)", "key": {"Human cathepsin G": {"target": "T1, Human cathepsin G (Homo sapiens, UniProt P08311)", "T1 construct": "purchased Calbiochem 219373", "T1 sequence (P08311 21-244)": "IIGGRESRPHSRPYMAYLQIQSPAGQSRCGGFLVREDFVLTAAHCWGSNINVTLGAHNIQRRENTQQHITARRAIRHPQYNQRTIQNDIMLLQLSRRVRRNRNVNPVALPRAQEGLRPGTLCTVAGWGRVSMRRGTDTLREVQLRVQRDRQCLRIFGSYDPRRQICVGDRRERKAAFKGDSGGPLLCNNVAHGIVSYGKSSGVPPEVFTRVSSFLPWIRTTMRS", "assay": "Human cathepsin G assay", "assay_type": "biochemical", "protocol": "Using this assay, the selectivity of a compound of the invention for hDPP-I over human cathepsin G was determined, using a chromogenic substrate.\nBuffer containing 100 mM Tris/HCl pH 8.3 (25° C.), 500 mM NaCl, and 20 mM CaCl2 prepared. DTNB (5,5′-dithio-bis(2-nitrobenzoic acid)) was added just prior to experiment (10 μL 1.25 mM/well).\nHuman cathepsin G (Calbiochem Cat # 219373, 50 ng/μL 0.1 mU/μL stock) was reconstituted in 50 mM sodium acetate and 150 mM NaCl (pH 5.5), and stored at −20° C. Diluted to 2 ng/μL in buffer just prior to experiment.\nSuc-Ala-Ala-Pro-Phel-SBzl (Bachem Cat # 4009924.0050) diluted to 1 mM in buffer from 10 mM stock in buffer. Km determined to 100-200 μM.\nThe assay was performed in 96-well plates. 60 μL assay buffer was added to the well followed by 10 μL DTNB (1.25 mM), and 10 μL of a compound of the invention (100 μM, diluted with assay buffer to give 10 μM in the assay). Then 10 μL (2 ng/μL) enzyme was added, and 10 min. later (at 37° C.) 10 μL substrate (100 μM final concentration) was added. The absorption was measured at 410 nm for 10 minutes at 37° C. Each measurement was made in duplicate. In the software (SOFTmax Pro) used for data collection from the UV-spectrometer it was ensured that the measured slopes were linear (R^2>0.99). […]"}, "Human liver cathepsin B": {"target": "T2, Human liver cathepsin B (Homo sapiens, UniProt P07858)", "T2 construct": "Human liver cathepsin B (Enzyme System Products, CAT-B); purchased Enzyme System Products CAT-B; host or cells: human liver", "assay": "Human liver cathepsin B assay", "assay_type": "biochemical", "protocol": "Human Liver Cathepsin B Assay\nUsing this assay, the selectivity of a compound of the invention for hDPP-I over human cathepsin B was determined, using a fluorogenic substrate.\n0.1 M MES buffer (1.95 g; M=195.2) and 1 mM EDTA (37 mg; M=372.2) were mixed in 100 mL H2O and pH adjusted to 6.1. DTT (10 μL, 0.5 M) was added for activation of the enzyme […].\nHuman liver cathepsin B (Enzyme System Products, CAT-B; stock 25 μg/54 μL=463 ng/μL). One aliquot was diluted to a concentration of 40 ng/μL by adding 53 μL assay buffer (without DTT). Just prior to experiment, two more dilution steps were performed: 4 ng/μL: 5 μL (40 ng/μL)+45 μL buffer (without DTT) 0.1 ng/μL: 5 μL (4 ng/μL)+[…] buffer (without DTT)\nBoc-Leu-Arg-Arg-AFC.2TFA (Enzyme System Products AFC113). Stock solution made (20 mM; 15.1 mg dissolved in 1 ml DMSO). Diluted further in H2O to 10 mM. Km for this substrate has been determined to be 600 μM.\nThe assay was performed in 96-well plates. 84 μL assay buffer was added to the well followed by 10 μL 1% DMSO in assay buffer (control) or a compound, of the invention (10 μM in the assay). […] The excitation wavelength was 400 nm, and the emission was measured at 505 nm for 10-20 minutes at 37° C. […] In the software (SOFTmax Pro) used for data collection from the fluorometer (Molecular Devices: Gemini XS), it was ensured that the measured slopes were linear (R^2>0.99). […]"}, "β-tryptase": {"tested_on": "β-tryptase", "assay": "Tryptase assay", "assay_type": "biochemical, human", "protocol": "Using this assay, the selectivity of a compound of the invention for hDPP-I over β-tryptase was determined, using a fluorogenic substrate.\n0.1 M HEPES buffer (pH 7.5) with 0.5 M NaCl.\nRh-Skin β-tryptase (Promega # G7061) was diluted to a final stock solution of 0.08 μg/μL in assay buffer.\nRh-lung β-tryptase (Promega # G5631) was diluted to a final stock solution of 0.08 μg/μL in assay buffer.\nZ-ARG-AMC*HCl (BACHEM I1130; 10 mg) was dissolved in 1 mL DMSO, giving a 20 mM solution. Km was determined to be >400 μM.\nThe assay was performed in 96-well plates. 85 μl assay buffer was added to the well followed by 5 μL enzyme stock. Then 5 μL substrate was added, and subsequently 5 μL 4% DMSO in assay buffer (control) or a compound of the invention (10 μM in the assay) The excitation wavelength was 380 nm, and the emission was measured at 460 nm for 10-20 minutes at […] Each measurement was mad in duplicate. In the software (SOFTmax Pro) used for data collection from the fluorometer (Molecular Devices: Gemini XS), it was ensured that the measured slopes were linear (R^2>0.99).\nData were exported to GraphPad Prism and nonlinear regression was performed using the option Sigmoidal dose-response (variable slope)."}}, "note": "Square brackets hold non-standard residues; d marks the D form. Peptide text beside a SMILES is read from it. Phe(3-F) = N[C@@H](Cc1cccc(F)c1)C(=O)O; hPhe = N[C@@H](CCc1ccccc1)C(=O)O; Abu = CC[C@H](N)C(=O)O; azaGly = NNC(=O)O", "data": [{"smiles": "CC[C@H](N)C(=O)NNC(=O)N[C@@H](CCc1ccccc1)C(=O)N[C@@H](Cc1cccc(F)c1)C(N)=O", "note": "[Example 11, 1-(2S-2-Aminobutanoyl)-4-[2S-N-[2S-3-(m-fluorophenyl)propan-2-yl-amide]-4-phenylbutan-2-yl-amide]semicarbazide] (H-[Abu][azaGly][hPhe][Phe(3-F)]-NH2)", "values": [{"measurement": "Inhibition of Cathepsin G (in words)", "setting": "Human cathepsin G", "result": "does not inhibit"}, {"measurement": "IC50", "setting": "Human cathepsin G; human cathepsin G, 10 μM cutoff, read-out: Secondary enzymatic screening (10 μM cutoff or IC50) Cathepsin G", "result": "> 10", "unit": "µM"}, {"measurement": "Inhibition of Cathepsin B (in words)", "setting": "Human liver cathepsin B", "result": "does not inhibit"}, {"measurement": "IC50", "setting": "Human liver cathepsin B; human liver cathepsin B, read-out: Secondary enzymatic screening (10 μM cutoff or IC50) Cathepsin B", "result": 4.5, "unit": "µM"}, {"measurement": "Inhibition of tryptase (in words)", "setting": "β-tryptase", "result": "does not inhibit"}, {"measurement": "IC50", "setting": "β-tryptase; β-tryptase, 10 μM cutoff, read-out: Secondary enzymatic screening (10 μM cutoff or IC50) Tryptase", "result": "> 10", "unit": "µM"}]}]}
